One data set has as its system human purified monocytes. The data set is described as follows: Stimulated IL-6 release from human purified monocytes (ELISA). As to conditions: 24 h, LMW-DS 60-600 µg/ml, heparin 2.0-20 µg/ml, dexamethasone 3.0 µM. Type of data set: cell-based. The protocol: Peripheral blood mononuclear cells (PBMC) were isolated from healthy donors through Ficoll-Paque PLUS (GE Healthcare; 11778538) density centrifugation. Monocytes were purified using the EasySep™ human monocyte enrichment kit (StemCell) that purifies monocytes ‘untouched’ to maintain their phenotype.
Monocytes were cultured in the absence (unstimulated PBS vehicle controls) or presence of stimulation (LPS or peptidoglycan) in the absence (vehicle) or presence of LMW-DS (Tikomed AB, Viken, Sweden, WO 2016/076780; three concentrations; top concentration 600 µg/ml, 200 µg/ml and 60 µg/ml), heparin (2.0, 6.0 or 20 µg/ml; equivalent to 0.406, 1.218 and 4.06 units/ml; Sigma Aldrich) or dexamethasone (3.0 µM; Sigma Aldrich) for 24 hours at 37° C., 5% CO2. Following centrifugation, cell culture supernatants were removed and stored at -20° C. awaiting analysis for IL-6 by ELISA. Levels of IL-6 were quantified in the supernatant by ELISA (R&D systems) according to manufacturer’s instructions.
(In an ELISA, binding on a coated surface is turned into a signal by an enzyme label.)

For data set [1] the following is noted: in vivo; cited from earlier work.
For data set [2], the target named is T1, oligomeric amyloid-β / PrP^c interaction (Homo sapiens, UniProt P04156). Format: binding.
Data set [3] concerns the target T1, oligomeric amyloid-β / PrP^c interaction. The following applies: cited from earlier work.
Data set [4] deals with mouse model of muscle atrophy. The following applies: after 2 weeks of treatment; cited from earlier work.

On to heparin [reference compound], for which the “LPS-stimulated IL-6 release” value in the data set on human purified monocytes (LPS 0.01 ng/ml) was “concentration dependent statistically significant enhancement”. In addition, the “peptidoglycan-stimulated IL-6 release” value in the data set on human purified monocytes (peptidoglycan 30 ng/ml) is given as “did not reach statistical significance”.
With certolizumab, in data set [1], the half-life entry is reported as “around 14 days”.
As to infliximab, in data set [1], the half-life entry is “around 14 days”.
adalimumab: the half-life result in data set [1] was “around 14 days”.
dextran sulphate sodium salt [DSSS]: in data set [2], the “Competable binding (%)” value is 101±2%; the Hill coefficient (in general, a measure of the steepness of the concentration-response curve) is reported as 1.51±0.06; the IC50 (commonly the concentration needed to halve the response being measured) was found to be 0.62 ± 0.07 µg/mL. Also, the “effective concentrations to compete with the amyloid-β / PrP^c interaction” value in data set [3] was “low µg/ml range”.
dextran: the “competition for the protein-protein interaction between oligomeric amyloid-β and PrP^c” value in data set [2] is “failed to compete appreciably”.
Take “recombinant HGF: recombinant hepatocyte growth factor”: the “increase in muscle mass” value in data set [4] was 18%.

These data come from patent US20230346827A1 (priority 2020, published 2023).
